Measured values taken from ChEMBL document CHEMBL1201862, “PubChem BioAssay data set” (2004).
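Following 48 hours of exposure in 96-well plates, responses at five concentrations were used to interpolate endpoints linearly. GI50: concentration for 50% inhibition of growth.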 The source made the active and inactive calls. Rule as the data show it: active = GI50 up to about 1.1 µM and inactive = higher.

Key:
Assay in all cases: NCI anticancer screen, dose series, 48 h
A549 = system: A549
ACHN = system: ACHN
HCC 2998 = system: HCC 2998
HCT-15 = system: HCT-15
HL-60 = system: HL-60
HOP-92 = system: HOP-92
IGROV-1 = system: IGROV-1
K562 = system: K562
KM12 = system: KM12
OVCAR-3 = system: OVCAR-3
OVCAR-5 = system: OVCAR-5
OVCAR-8 = system: OVCAR-8
SK-MEL-2 = system: SK-MEL-2
SNB-78 = system: SNB-78
NCI-H226 = system: NCI-H226
BT-549 = system: BT-549
MCF7 = system: MCF7
MDA-MB-435 = system: MDA-MB-435
MDA-N = system: MDA-N
PC-3 = system: PC-3

Row | Compound | GI50 (A549) | GI50 (ACHN) | GI50 (HCC 2998) | GI50 (HCT-15) [µM] | GI50 (HL-60) | GI50 (HOP-92) | GI50 (IGROV-1) | GI50 (K562) | GI50 (KM12) | GI50 (OVCAR-3) | GI50 (OVCAR-5) | GI50 (OVCAR-8) | GI50 (SK-MEL-2) | GI50 (SNB-78) | GI50 (NCI-H226) | GI50 (BT-549) | GI50 (MCF7) | GI50 (MDA-MB-435) | GI50 (MDA-N) | GI50 (PC-3)
1 | CC(C)(C)CC(C)(C)c1cc2c(O)c(c1)Cc1cc(C(C)(C)CC(C)(C)C)cc(c1O)Cc1cc(C(C)(C)CC(C)(C)C)cc(c1O)Cc1cc(C(C)(C)CC(C)(C)C)cc(c1O)C2 | > 100 µM (inactive) | > 100 µM (inactive) | > 100 µM (inactive) | > 100 | > 100 µM (inactive) | > 100 µM (inactive) | > 100 µM (inactive) | > 100 µM (inactive) | > 100 µM (inactive) | > 100 µM (inactive) | > 100 µM (inactive) | > 100 µM (inactive) | > 100 µM (inactive) | > 100 µM (inactive) |  |  |  |  |  | 
2 | O=C1OC(=O)c2c1nc1ccccc1c2-c1ccccc1 | > 100 µM (inactive) | > 100 µM (inactive) | > 100 µM (inactive) | > 100 | > 100 µM (inactive) | > 100 µM (inactive) | > 100 µM (inactive) | > 100 µM (inactive) | > 100 µM (inactive) |  | > 100 µM (inactive) | > 100 µM (inactive) | > 100 µM (inactive) | > 100 µM (inactive) | > 100 µM (inactive) |  |  |  |  | 
3 | CC(NC(=O)c1ccccc1)C(=O)N(Cc1ccccc1)Cc1ccccc1 (stereo not given) | 30.2 µM (inactive) | 31.7 µM (inactive) | 35.6 µM (inactive) | 32.1 |  | 23.6 µM (inactive) | 34 µM (inactive) | 15.3 µM (inactive) | 26.6 µM (inactive) |  | 33 µM (inactive) |  | 20.7 µM (inactive) | 27.7 µM (inactive) | 23.4 µM (inactive) |  |  |  |  | 
4 | C#CCN(N=O)C(=O)NCCCCC(NC(C)=O)C(=O)NCc1ccccc1 (stereo not given) | > 100 µM (inactive) | > 100 µM (inactive) | > 100 µM (inactive) | > 100 |  | > 100 µM (inactive) | > 100 µM (inactive) | 54.1 µM (inactive) | > 100 µM (inactive) | > 100 µM (inactive) | > 100 µM (inactive) | > 100 µM (inactive) |  | > 100 µM (inactive) | > 100 µM (inactive) |  |  |  |  | 
5 | Cc1cc(Br)cc(C)c1NC(=O)C(=O)CC(=O)c1sc(-n2nc(-c3ccccc3)cc2-c2ccccc2)nc1C | > 100 µM (inactive) | > 100 µM (inactive) | > 100 µM (inactive) | > 100 | > 100 µM (inactive) | > 100 µM (inactive) | > 100 µM (inactive) | > 100 µM (inactive) | > 100 µM (inactive) | > 100 µM (inactive) | > 100 µM (inactive) | > 100 µM (inactive) |  | > 100 µM (inactive) | > 100 µM (inactive) |  |  |  |  | 
6 | CCn1c2ccccc2c2ccc3c(c21)C(=O)c1ccccc1C3=O | > 100 µM (inactive) | > 100 µM (inactive) | > 100 µM (inactive) | > 100 | 36.8 µM (inactive) | 82.2 µM (inactive) | > 100 µM (inactive) | > 100 µM (inactive) |  |  |  | > 100 µM (inactive) |  | > 100 µM (inactive) | > 100 µM (inactive) |  |  |  |  | 
7 | CC(C)C(Br)CC/C(CBr)=C(\Cl)CCl (stereo not given) | 16.3 µM (inactive) | 15 µM (inactive) | 13.4 µM (inactive) | 2.11 | 0.585 µM (active) | 2.06 µM (inactive) | 1.89 µM (inactive) | 0.682 µM (active) | 5.61 µM (inactive) | 3.3 µM (inactive) | 10.4 µM (inactive) | 3.1 µM (inactive) | 2.19 µM (inactive) |  | 2.75 µM (inactive) | 1.78 µM (inactive) | 6.15 µM (inactive) | 2.35 µM (inactive) | 1.85 µM (inactive) | 6.08 µM (inactive)
8 | Cc1cccc(NC(=O)C(=O)C(C2OC(=O)c3ccccc32)[N+](=O)[O-])c1C (stereo not given) | 18.3 µM (inactive) | 10.9 µM (inactive) | 13.8 µM (inactive) | 5.21 | 2.37 µM (inactive) |  | 9.82 µM (inactive) | 4.42 µM (inactive) | 12.8 µM (inactive) | 2.08 µM (inactive) | 19.1 µM (inactive) | 13.2 µM (inactive) | 5.06 µM (inactive) | 17.5 µM (inactive) | 12.6 µM (inactive) |  |  |  |  | 
9 | CC(C)c1cccc(C(C)C)c1NC(=O)C(=O)C(C(=O)c1ccc2ccccc2c1)C1OC(=O)c2ccccc21 (stereo not given) | > 100 µM (inactive) | > 100 µM (inactive) | > 100 µM (inactive) | > 100 |  | 27.9 µM (inactive) | > 100 µM (inactive) | > 100 µM (inactive) | > 100 µM (inactive) | > 100 µM (inactive) | 26.9 µM (inactive) | > 10 µM (inactive) | > 100 µM (inactive) | > 100 µM (inactive) | 19.7 µM (inactive) |  |  |  |  | 
10 | CC(=O)Nc1ccc(/C=c2\sc3nnc(/C=C/c4ccccc4)n3c2=O)cc1 | > 50 µM (inactive) | > 50 µM (inactive) | > 50 µM (inactive) |  | > 50 µM (inactive) |  | > 50 µM (inactive) | > 50 µM (inactive) | > 50 µM (inactive) | > 50 µM (inactive) | > 50 µM (inactive) | > 50 µM (inactive) | > 50 µM (inactive) | > 50 µM (inactive) | > 50 µM (inactive) |  |  |  |  | 
11 | Cc1cccc(C(C)(C)C)c1NC(=O)CCl | > 100 µM (inactive) | > 100 µM (inactive) | > 100 µM (inactive) |  | > 100 µM (inactive) |  | > 100 µM (inactive) | > 100 µM (inactive) | > 100 µM (inactive) | > 100 µM (inactive) |  | > 100 µM (inactive) | > 100 µM (inactive) | > 100 µM (inactive) | > 100 µM (inactive) |  |  |  |  | 
12 | Cc1ccc(/C=C/C(=O)c2ccc(Cl)c(Cl)c2)cc1 | > 100 µM (inactive) | > 100 µM (inactive) | > 100 µM (inactive) |  | > 100 µM (inactive) |  | > 100 µM (inactive) | > 100 µM (inactive) | > 100 µM (inactive) | > 100 µM (inactive) | > 100 µM (inactive) | > 100 µM (inactive) | > 100 µM (inactive) | > 100 µM (inactive) | > 100 µM (inactive) |  |  |  |  | 
13 | C/C(=N\NC(=S)N1CCC(C2CCN(C(=S)N/N=C(\C)c3ccccn3)CC2)CC1)c1ccccn1 | 55 µM (inactive) | 53.7 µM (inactive) | > 100 µM (inactive) |  | > 100 µM (inactive) | 37.8 µM (inactive) | 68.7 µM (inactive) | > 100 µM (inactive) | > 100 µM (inactive) | 60.3 µM (inactive) | > 100 µM (inactive) | 46.7 µM (inactive) |  | 44.3 µM (inactive) | 60.7 µM (inactive) |  |  |  |  | 
14 | CSC(=S)N(C)NC(=O)c1cccc(C(=O)NN(C)C(=S)SC)n1 | 14.8 µM (inactive) | > 100 µM (inactive) |  | 25.9 | 5.7 µM (inactive) | 21.5 µM (inactive) | 8.2 µM (inactive) | 15.6 µM (inactive) | 2.89 µM (inactive) |  | 4.88 µM (inactive) | 21.8 µM (inactive) |  | 27.7 µM (inactive) | 25.9 µM (inactive) |  |  |  |  | 
15 | S=C1NCCN1 | > 100 µM (inactive) | > 100 µM (inactive) |  | > 100 | > 100 µM (inactive) | > 100 µM (inactive) | > 100 µM (inactive) | > 100 µM (inactive) | > 100 µM (inactive) | > 100 µM (inactive) | > 100 µM (inactive) | > 100 µM (inactive) | > 100 µM (inactive) | > 100 µM (inactive) | > 100 µM (inactive) |  |  |  |  | 
16 | COc1ccc(C(=O)C(c2ccc(OC)cc2)C2(O)C(=O)Nc3ccccc32)cc1 (stereo not given) | > 100 µM (inactive) | > 100 µM (inactive) |  | > 100 | 98.6 µM (inactive) | > 100 µM (inactive) | > 100 µM (inactive) | > 100 µM (inactive) | > 100 µM (inactive) | > 100 µM (inactive) |  |  | > 100 µM (inactive) | > 100 µM (inactive) | > 100 µM (inactive) |  |  |  |  | 
17 | COC(=O)C1=C(C)N(NC(=O)c2ccccc2)C(C)(O)C12CCOC2=O (stereo not given) | > 100 µM (inactive) | > 100 µM (inactive) | > 100 µM (inactive) | > 100 | > 100 µM (inactive) |  | > 100 µM (inactive) | > 100 µM (inactive) | > 100 µM (inactive) | > 100 µM (inactive) | > 100 µM (inactive) | > 100 µM (inactive) | 0.608 µM (active) | > 100 µM (inactive) | > 100 µM (inactive) |  |  |  |  | 
18 | NC(=O)NCc1c(C(N)=O)ncn1Cc1ccccc1 | > 100 µM (inactive) | > 100 µM (inactive) | > 100 µM (inactive) | > 100 | > 100 µM (inactive) | > 100 µM (inactive) | > 100 µM (inactive) | > 100 µM (inactive) |  | > 100 µM (inactive) |  | > 100 µM (inactive) |  | > 100 µM (inactive) |  |  |  |  |  | 
19 | CC(C)CCCC(C)[C@H]1CCC2[C@H]3C(CC[C@@]21C)[C@@]1(C)CCC=C[C@]12C[C@@H]2[C@@H]3O (stereo not given in full) | > 100 µM (inactive) | > 100 µM (inactive) | > 100 µM (inactive) | > 100 | > 100 µM (inactive) | > 100 µM (inactive) | > 100 µM (inactive) |  | > 100 µM (inactive) | > 100 µM (inactive) | > 100 µM (inactive) | > 100 µM (inactive) |  | > 100 µM (inactive) | > 100 µM (inactive) |  |  |  |  | 
20 | CN(C)CCNc1nc(-c2cccs2)cc(-c2cccs2)n1 | 15.6 µM (inactive) |  | 12.4 µM (inactive) | 15.9 |  | 1.58 µM (inactive) | 24.4 µM (inactive) | 17.7 µM (inactive) | 12.1 µM (inactive) | 22.6 µM (inactive) | 9.18 µM (inactive) | 9.84 µM (inactive) | 16.8 µM (inactive) | 16.9 µM (inactive) | 15.9 µM (inactive) |  |  |  |  | 
